Data from ChEMBL document CHEMBL1201862, “PubChem BioAssay data set” (2004).
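Step 1: Grow cells in 96-well plates. Step 2: Expose to compound for 48 hours at 5 concentrations. Step 3: Interpolate endpoints linearly; if unreached, use highest concentration. GI50 is the concentration that inhibits growth by half.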 Active and inactive are the calls of the source. Rule as the data show it: active = GI50 up to about 1.1 µM and inactive = higher.

Experiments:
Assay in all cases: NCI anticancer screen, dose series, 48 h
HOP-18 = test system: HOP-18
KM-20L2 = test system: KM-20L2
M19-MEL = test system: M19-MEL
XF498 = test system: XF498
DLD-1 = test system: DLD-1
SNB-78 = test system: SNB-78
RXF 631 = test system: RXF 631
LXFL 529 = test system: LXFL 529
DMS-114 = test system: DMS-114

Row | SMILES | GI50 (HOP-18) | GI50 (KM-20L2) | GI50 (M19-MEL) | GI50 (XF498) | GI50 (DLD-1) | GI50 (SNB-78) | GI50 (RXF 631) | GI50 (LXFL 529) | GI50 (DMS-114)
1 | CN(C)NC1=C([N+](=O)[O-])C=NN(c2ccccc2)C1 | 1.81 µM (inactive) | 1.9 µM (inactive) | 1.81 µM (inactive) | 2.36 µM (inactive) | 1.83 µM (inactive) | 2.17 µM (inactive) | 1.53 µM (inactive) | 1.65 µM (inactive) | 1.84 µM (inactive)
2 | O=C(Nc1ccc(Br)cc1)C(=O)C(C(=O)c1ccccc1F)C1OC(=O)c2ccccc21 (stereo not given) | 26.7 µM (inactive) | 40.1 µM (inactive) | 17.2 µM (inactive) | – | 26.2 µM (inactive) | 27.8 µM (inactive) | 34.8 µM (inactive) | 23.1 µM (inactive) | 14 µM (inactive)
3 | COc1ccc(N(C)Sc2ccccc2)cc1 | 68.4 µM (inactive) | 55.6 µM (inactive) | 69 µM (inactive) | 24 µM (inactive) | 47.5 µM (inactive) | > 100 µM (inactive) | – | 45.3 µM (inactive) | 36.6 µM (inactive)
4 | C=C=C(C(=O)OC)[S+]([O-])c1ccc([N+](=O)[O-])cc1[N+](=O)[O-] (stereo not given) | 44.2 µM (inactive) | 26.5 µM (inactive) | 25.4 µM (inactive) | 39.1 µM (inactive) | 16.2 µM (inactive) | – | 42 µM (inactive) | 16.8 µM (inactive) | 21 µM (inactive)
5 | Cc1c(CCCl)c(Cl)n2c(nc3ccccc32)c1C#N | 1.51 µM (inactive) | 0.641 µM (active) | 4.21 µM (inactive) | – | 1.12 µM (active) | 1.77 µM (inactive) | 0.568 µM (active) | 0.459 µM (active) | 1.13 µM (inactive)
6 | COc1ccc(OC)c(NC(=O)CCC/C(CC(=O)c2ccc(O)c(OC)c2)=N\NC(=O)C[N+](C)(C)C)c1 | > 100 µM (inactive) | > 100 µM (inactive) | > 100 µM (inactive) | > 100 µM (inactive) | > 100 µM (inactive) | – | > 100 µM (inactive) | > 100 µM (inactive) | > 100 µM (inactive)
7 | CC(=O)O[C@H]1C(=O)[C@@]2(C)C([C@H](OC(=O)c3ccccc3)[C@]3(O)C[C@H](OC(=O)[C@H](O)[C@@H](NC(=O)c4ccc(Cl)cc4)c4ccccc4)C(C)=C1C3(C)C)C1(OC(C)=O)CO[C@@H]1C[C@@H]2O (stereo not given in full) | – | < 0.01 µM (active) | < 0.01 µM (active) | 0.0303 µM (active) | 0.0222 µM (active) | – | – | < 0.01 µM (active) | < 0.01 µM (active)
8 | COCOCCCCCO[Si](C)(C)C(C)(C)C | 30.8 µM (inactive) | 22.8 µM (inactive) | 28.7 µM (inactive) | 15.7 µM (inactive) | 31.6 µM (inactive) | 22.8 µM (inactive) | 19.4 µM (inactive) | 26.9 µM (inactive) | 17.5 µM (inactive)
9 | O=C(O)/C=C\C(=O)c1ccc(Cl)cc1 | > 69.2 µM (inactive) | 36.7 µM (inactive) | 24.3 µM (inactive) | 27.7 µM (inactive) | 35.2 µM (inactive) | 33.7 µM (inactive) | > 100 µM (inactive) | 21.8 µM (inactive) | 21.4 µM (inactive)
10 | O=C(c1ccc(Cl)cc1)c1ccc(OCCCOc2ccc(C(=O)c3ccc(Cl)cc3)cc2)cc1 | – | > 100 µM (inactive) | > 100 µM (inactive) | > 100 µM (inactive) | > 100 µM (inactive) | – | – | > 100 µM (inactive) | > 100 µM (inactive)
11 | COc1cc(Br)c(/C=N/N=C(\N)NO)cc1OC | 4.72 µM (inactive) | 5.73 µM (inactive) | 19.6 µM (inactive) | 13.6 µM (inactive) | 25.9 µM (inactive) | 73.3 µM (inactive) | 11.6 µM (inactive) | 10.9 µM (inactive) | 12.4 µM (inactive)
12 | C#Cc1cccc(N2C(=O)CC(=P(c3ccccc3)(c3ccccc3)c3ccccc3)C2=O)c1 | – | – | 42.9 µM (inactive) | 0.405 µM (active) | > 100 µM (inactive) | > 100 µM (inactive) | – | 11.8 µM (inactive) | 19.9 µM (inactive)
13 | O=C(O)CSc1nnc(-c2ccco2)[nH]1 | – | > 100 µM (inactive) | > 100 µM (inactive) | > 100 µM (inactive) | > 100 µM (inactive) | > 100 µM (inactive) | > 100 µM (inactive) | > 100 µM (inactive) | –
14 | CC1(Cl)CC2OC3(Br)C=CC(C)(O)C2(CC1Br)C3(C)C (stereo not given) | > 100 µM (inactive) | > 100 µM (inactive) | > 100 µM (inactive) | – | > 100 µM (inactive) | > 100 µM (inactive) | – | > 100 µM (inactive) | > 100 µM (inactive)
15 | COc1ccc(C(=O)NCCC2=CCCCC2)cc1 | > 100 µM (inactive) | > 100 µM (inactive) | > 100 µM (inactive) | > 100 µM (inactive) | > 100 µM (inactive) | > 100 µM (inactive) | – | – | > 100 µM (inactive)
16 | CCCCCC(=O)Nc1nc(O)c2[nH]cnc2n1 | > 100 µM (inactive) | > 100 µM (inactive) | > 100 µM (inactive) | > 100 µM (inactive) | > 100 µM (inactive) | > 100 µM (inactive) | – | > 100 µM (inactive) | > 100 µM (inactive)
17 | CC12N=NN(c3ccc([N+](=O)[O-])cc3)C1(O)c1ccccc1C2=O (stereo not given) | – | > 100 µM (inactive) | > 100 µM (inactive) | > 100 µM (inactive) | – | – | – | > 100 µM (inactive) | > 100 µM (inactive)
18 | COC(=O)c1c(C)oc2ccc(OC(C)=O)cc12 | – | > 100 µM (inactive) | > 100 µM (inactive) | – | – | > 100 µM (inactive) | – | – | > 100 µM (inactive)
19 | COc1ccc(O)c(C(=O)CCC(=O)O)c1 | – | – | > 100 µM (inactive) | > 100 µM (inactive) | > 100 µM (inactive) | > 100 µM (inactive) | > 100 µM (inactive) | > 100 µM (inactive) | > 100 µM (inactive)
20 | CCn1c(CSc2nc(-c3ccccc3)c(-c3ccccc3)[nH]2)n[nH]c1=S | – | > 100 µM (inactive) | > 100 µM (inactive) | > 100 µM (inactive) | > 100 µM (inactive) | > 100 µM (inactive) | – | > 100 µM (inactive) | > 100 µM (inactive)
21 | Cc1cc2c3ccccc3n(C)c2c2c1C(=O)C=CC2=O | – | – | 18.2 µM (inactive) | 16.3 µM (inactive) | 12.7 µM (inactive) | 17.4 µM (inactive) | – | 3.99 µM (inactive) | 6.05 µM (inactive)
22 | CN(C)CCNC(=O)c1cccc2c1nc(-c1ccccn1)c1ccccc12 | 21.4 µM (inactive) | – | 18.1 µM (inactive) | – | 11.9 µM (inactive) | 25.3 µM (inactive) | – | – | 18.3 µM (inactive)
23 | COc1ccc(N2C(=O)[C@H]3[C@H]4CC(C(C)(C)C)CC[C@H]4c4c(n(C)c5ccccc45)[C@H]3C2=O)cc1 (stereo not given in full) | > 100 µM (inactive) | – | < 0.01 µM (active) | > 100 µM (inactive) | < 0.01 µM (active) | – | – | > 100 µM (inactive) | > 100 µM (inactive)
24 | CC1(c2ccccc2)CC12C(=O)NC(=O)NC2=O (stereo not given) | – | > 100 µM (inactive) | > 100 µM (inactive) | > 100 µM (inactive) | > 100 µM (inactive) | > 100 µM (inactive) | – | > 100 µM (inactive) | > 100 µM (inactive)
25 | COc1ccc(C2=C[C@]3(O)CCCN3C[C@@H]2c2ccc(OC)c(OC)c2)cc1 | < 0.0001 µM (active) | < 0.0001 µM (active) | – | < 0.0001 µM (active) | < 0.0001 µM (active) | < 0.0001 µM (active) | – | < 0.0001 µM (active) | –
26 | [O-][S+]1CSCS1 (stereo not given) | > 100 µM (inactive) | > 100 µM (inactive) | > 100 µM (inactive) | > 100 µM (inactive) | > 100 µM (inactive) | 91.8 µM (inactive) | 85.9 µM (inactive) | > 100 µM (inactive) | > 100 µM (inactive)
